Measured values: patent US20230102503A1, “BIOMARKERS FOR OXYTOCIN RECEPTOR ANTAGONIST THERAPY” (ObsEva S.A., priority 2020, published 2023)

Experiments:
CYP2D6 = CYP2D6 (Homo sapiens, UniProt P10635); assay: metabolism by CYP2D6 isoform; format: in vitro ADME
Experimental: (§1) At five time points over the course of a 45 minute experiment, the compounds were analyzed by LC-MS/MS. The percentage of each compound remaining at each time point, along with the metabolic half-lives of each compound in the presence of each cytochrome P450 isoform, are indicated in Tables 10-12, below.

CYP2C19 = CYP2C19 (Homo sapiens, UniProt P33261); assay: metabolism by CYP2C19 isoform; format: in vitro ADME
Experimental: as §1

CYP3A4 = CYP3A4 (Homo sapiens, UniProt P08684); assay: metabolism by CYP3A4 isoform; format: in vitro ADME
Experimental: as §1

[1] = plasma concentration of compound (II) in clinical trial of Example 4; format: in vivo, human; conditions: oral administration of either the 900 mg or the 1,800 mg dose
Experimental: (§2) Particularly, subjects were pre-treated with estradiol valerate at a dosage of 2 mg administered 3 times per day (TID) for 16 days. Administration of estradiol valerate was followed by vaginal progesterone at a dosage of 200 mg administered TID.

[2] = system: healthy female volunteers; assay: uterine contractions and endometrial blood flow in clinical trial of Example 4; format: in vivo, human; conditions: single oral dose of 900 mg or 1,800 mg
Experimental: as §2
These assessments included measurements of uterine contractions by ultrasound and uterine perfusion by a 3D-power Doppler technique.
Mean and median changes in uterine contraction frequency and endometrial vascularity indices (particularly, endometrial flow index (FI), vascularity index (VI), and vascularity flow index (VFI)) were calculated. […] Differences in endometrial mRNA expression were identified and assessed for statistical significance.

[3] = system: endometrial RNA transcript expression (DPP4, CNTNAP3, CNTN4, CXCL12, TNXB, CTSE, OLFM4, KRT5, KRT6A, IDO2); assay: RNA-Seq assay of endometrial tissue mRNA expression before and after administration; format: in vivo, human
Experimental: Using an RNA-Seq assay, each subject's mRNA expression level of a variety of genes, including DPP4, CNTNAP3, CNTN4, CXCL12, TNXB, CTSE, OLFM4, KRT5, KRT6A, and IDO2, was then assessed to determine whether the expression of each gene increased, decreased, or underwent no significant change due to administration of the compound or placebo.

uterine contractions = assay: Uterine contractions after single dose versus placebo; format: in vivo, human
endometrial perfusion = assay: Endometrial perfusion parameters (VI, FI, VFI) after single dose; format: in vivo, human; conditions: for increase in median endometrial VFI: between pre-dose and 24-hour post-dose
[4] = system: spontaneous uterine contractions; conditions: same vehicle, same model organism; cited from earlier work
[5] = crystal form with XRPD peaks of Table 1; cited from earlier work
[6] = dispersible tablet formulations; cited from earlier work
[7] = 1,800 mg dose, within 24 hours of administration

Sequence of CYP2C19 (P33261 whole entry, canonical isoform): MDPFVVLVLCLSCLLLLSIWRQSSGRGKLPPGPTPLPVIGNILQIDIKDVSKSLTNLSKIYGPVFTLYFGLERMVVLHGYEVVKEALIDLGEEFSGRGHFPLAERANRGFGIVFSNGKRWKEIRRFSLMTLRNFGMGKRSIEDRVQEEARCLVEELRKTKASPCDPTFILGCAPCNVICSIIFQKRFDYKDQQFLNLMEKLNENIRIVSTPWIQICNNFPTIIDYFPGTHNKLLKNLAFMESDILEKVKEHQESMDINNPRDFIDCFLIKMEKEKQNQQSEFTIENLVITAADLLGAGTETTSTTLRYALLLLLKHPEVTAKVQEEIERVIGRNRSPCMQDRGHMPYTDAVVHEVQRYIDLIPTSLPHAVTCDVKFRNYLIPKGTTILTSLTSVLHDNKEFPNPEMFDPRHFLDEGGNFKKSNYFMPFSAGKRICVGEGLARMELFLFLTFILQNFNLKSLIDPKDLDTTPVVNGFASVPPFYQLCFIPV
Sequence of CYP3A4 (P08684 whole entry, canonical isoform): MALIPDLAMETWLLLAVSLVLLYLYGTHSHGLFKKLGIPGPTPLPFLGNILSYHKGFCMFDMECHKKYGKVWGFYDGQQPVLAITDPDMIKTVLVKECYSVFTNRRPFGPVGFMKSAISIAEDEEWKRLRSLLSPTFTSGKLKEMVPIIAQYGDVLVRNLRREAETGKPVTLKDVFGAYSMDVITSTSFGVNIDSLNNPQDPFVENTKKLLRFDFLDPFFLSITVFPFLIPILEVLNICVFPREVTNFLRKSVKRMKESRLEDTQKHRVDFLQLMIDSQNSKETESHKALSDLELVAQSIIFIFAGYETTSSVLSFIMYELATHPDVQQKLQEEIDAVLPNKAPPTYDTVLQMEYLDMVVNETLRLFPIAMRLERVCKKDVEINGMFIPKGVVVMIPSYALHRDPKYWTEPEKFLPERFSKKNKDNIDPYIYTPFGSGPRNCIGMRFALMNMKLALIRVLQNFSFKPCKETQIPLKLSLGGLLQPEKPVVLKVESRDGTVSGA
Sequence of CYP2D6 (P10635 whole entry, canonical isoform): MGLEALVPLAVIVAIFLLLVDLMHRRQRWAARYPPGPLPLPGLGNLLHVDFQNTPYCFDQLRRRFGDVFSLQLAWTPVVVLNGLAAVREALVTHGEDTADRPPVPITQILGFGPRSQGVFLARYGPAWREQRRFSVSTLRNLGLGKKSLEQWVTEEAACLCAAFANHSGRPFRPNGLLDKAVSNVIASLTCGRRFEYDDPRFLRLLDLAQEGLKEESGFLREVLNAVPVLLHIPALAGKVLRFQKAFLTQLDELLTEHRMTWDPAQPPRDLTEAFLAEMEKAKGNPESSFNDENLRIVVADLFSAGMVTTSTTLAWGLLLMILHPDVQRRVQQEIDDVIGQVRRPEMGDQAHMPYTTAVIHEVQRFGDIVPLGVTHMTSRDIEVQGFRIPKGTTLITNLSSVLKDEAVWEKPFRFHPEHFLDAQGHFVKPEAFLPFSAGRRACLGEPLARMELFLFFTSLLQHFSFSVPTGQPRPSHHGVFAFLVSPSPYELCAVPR

## CO/N=C1\C[C@@H](CO)N(C(=O)c2ccc(-c3ccccc3C)cc2)C1 [(3E) isomer, (3E,5S)-5-(hydroxymethyl)-1-[(2′-methyl-1,1′-biphenyl-4-yl)carbonyl]pyrrolidin-3-one O-methyloxime]
CYP2D6
  preferential metabolism by cytochrome P450 isoform: preferentially metabolized by the CYP2D6 and CYP2C19 isoforms of cytochrome P450
CYP2C19
  preferential metabolism by cytochrome P450 isoform: preferentially metabolized by the CYP2D6 and CYP2C19 isoforms of cytochrome P450

## CO/N=C1/C[C@@H](CO)N(C(=O)c2ccc(-c3ccccc3C)cc2)C1 [Compound (II), (3Z,5S)-5-(hydroxymethyl)-1-[(2′-methyl-1,1′-biphenyl-4-yl)carbonyl]pyrrolidin-3-one O-methyloxime]
CYP3A4
  preferential metabolism by cytochrome P450 isoform: preferentially metabolized by the CYP3A4 isoform of cytochrome P450
[1]
  time to maximum concentration: about 4 hours
[2]; FIG. 7
  effect on uterine contractions: decrease uterine contractions
[2]; FIGS. 8-10
  effect on endometrial blood flow (FI, VI, VFI): marked and sustained increase in endometrial blood flow
[3]; 900 mg dose
  differences in mRNA expression in endometrial biopsy tissue compared to placebo: No differences
[3]; [7]
  number of mRNAs downregulated: 5
  number of mRNAs upregulated: 5
[3]; 1,800 mg dose, within 24 hours of administration, adjusted p<0.05
  number of mRNAs significantly differentially expressed: 10
Uterine contractions; 900 mg dose, 24-hour time point only (p=0.0437)
  proportion of subjects showing less than one uterine contraction per minute versus placebo: significant difference
Uterine contractions; 900 mg dose, all time points (p>0.10)
  number of uterine contractions per minute versus placebo: no significant difference
Uterine contractions; 1,800 mg dose, 8-hour time point (p=0.0121)
  proportion of subjects showing less than one uterine contraction per minute versus placebo: significance was seen
Uterine contractions; 1,800 mg dose, from the 4-hour time point onwards (p=0.0923 at 4 h, p=0.0081 at 8 h)
  number of uterine contractions per minute versus placebo: contraction-reducing effects were observed
Endometrial perfusion; 900 mg dose, 24-hour time point (p=0.0502)
  Endometrial Fl: significant increases
Endometrial perfusion; 900 mg dose
  increase in median endometrial VFI: approximately 3 fold
Endometrial perfusion; 1,800 mg dose, 8-hour time point (p=0.0714)
  endometrial VI versus placebo: substantial increase
Endometrial perfusion; 1,800 mg dose, 24-hour time point (p=0.0625)
  Endometrial Fl: significant increases
Endometrial perfusion; 1,800 mg dose
  increase in median endometrial VFI: approximately 3 fold
[4]
  inhibitory activity with respect to uterine contraction, compared with (3E) diastereomer: markedly higher than that of the substantially pure (3E) diastereomer
[5]
  stability of crystal form: enhanced stability to aqueous media and physical stress
[6]
  absorption kinetics upon administration to a subject: rapid absorption kinetics
